Measured values from patent US11459325B2, “Heterocyclic compound” (Takeda Pharmaceutical Company Limited, priority 2018, dated 2022).

System: GBA mutant human fibroblasts GM008760
Experiment: Glucosylceramide lowering assay
Type: cell-based
Conditions: 10 μM test compound, 4 days culture; GlcCer (C16:0)/Cer (C16:0) molar ratio of test compound group relative to DMSO control group x100; smaller value = glucosylceramide lowering
Summary of the method: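 Fibroblasts with mutant GBA were treated with 10 μM compound for 4 days. Lipids extracted in ethanol/isopropanol with deuterated internal standard; GlcCer (C16:0) and Cer (C16:0) quantified by RapidFire-MS/MS. Value is GlcCer/Cer ratio relative to DMSO control ×100.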

SMILES | 10 μM GlcCer/Cer (% of control)
Cc1cn(C)c(=O)c2c(C(=O)N3CC4CC4(c4ccc(Cl)cc4)C3)cnn12 (stereo not drawn) [Example 307, 3-((1-(4-chlorophenyl)-3-azabicyclo[3.1.0]hex-3-yl)carbonyl)-5,7-dimethylpyrazolo[1,5-a]pyrazin-4(5H)-one] | 65 % of control
Cc1cn(C)c(=O)c2c(C(=O)N3CC4CC4(c4ccc(OC(F)(F)F)cc4)C3)cnn12 (stereo not drawn) [Example 309, 5,7-dimethyl-3-((1-(4-(trifluoromethoxy)phenyl)-3-azabicyclo[3.1.0]hex-3-yl)carbonyl)pyrazolo[1,5-a]pyrazin-4(5H)-one] | 44 % of control
Cc1cn(C)c(=O)c2c(C(=O)N3CC4CC4(c4ccc(OC(F)(F)F)cc4)C3)cnn12 (stereo not drawn) [Example 310, 5,7-dimethyl-3-((1-(4-(trifluoromethoxy)phenyl)-3-azabicyclo[3.1.0]hex-3-yl)carbonyl)pyrazolo[1,5-a]pyrazin-4(5H)-one] | 68 % of control

Same assay, conditions: Homo sapiens, Fibroblast, 96 h; 10 μM test compound, 4 days culture; GlcCer (C16:0)/Cer (C16:0) molar ratio of test compound group relative to DMSO control group x100; smaller value = glucosylceramide lowering

SMILES | activity at 10 µM
COc1ccccc1-n1cc(C)n2ncc(C(=O)Nc3ccc(N4CCOCC4)cc3)c2c1=O [Example 311, 5-(2-methoxyphenyl)-7-methyl-N-(4-(morpholin-4-yl)phenyl)-4-oxo-4,5-dihydropyrazolo[1,5-a]pyrazine-3-carboxamide] | 54%
Cc1cn(C)c(=O)c2c(C(=O)N3CCC(Oc4ccc(C(F)(F)F)cc4)CC3)cnn12 [Example 313, 5,7-dimethyl-3-((4-(4-(trifluoromethyl)phenoxy)piperidin-1-yl)carbonyl)pyrazolo[1,5-a]pyrazin-4(5H)-one] | 52%
Cc1cn(CC#N)c(=O)c2c(C(=O)N3CCC(Oc4ccc(Cl)cc4)CC3)cnn12 [Example 330, {3-[4-(4-chlorophenoxy)piperidine-1-carbonyl]-7-methyl-4-oxopyrazolo[1,5-a]pyrazin-5(4H)-yl}acetonitrile] | 68%
Cc1cn(-c2ccccc2OCC(F)(F)F)c(=O)c2c(C(=O)Nc3ccc(N4CCOCC4)cc3)cnn12 [Example 334, 7-methyl-N-[4-(morpholin-4-yl)phenyl]-4-oxo-5-[2-(2,2,2-trifluoroethoxy)phenyl]-4,5-dihydropyrazolo[1,5-a]pyrazine-3-carboxamide] | 27%
Cc1cn(-c2ccccc2OCC(F)(F)F)c(=O)c2c(C(=O)N3CCC(Oc4ccc(Cl)cc4)CC3)cnn12 [Example 335, 3-[4-(4-chlorophenoxy)piperidine-1-carbonyl]-7-methyl-5-[2-(2,2,2-trifluoroethoxy)phenyl]pyrazolo[1,5-a]pyrazin-4(5H)-one] | 68%
Cc1cn(-c2ccc(F)cc2OCC(F)(F)F)c(=O)c2c(C(=O)Nc3ccc(N4CCOCC4)cc3)cnn12 [Example 336, 5-[4-fluoro-2-(2,2,2-trifluoroethoxy)phenyl]-7-methyl-N-[4-(morpholin-4-yl)phenyl]-4-oxo-4,5-dihydropyrazolo[1,5-a]pyrazine-3-carboxamide] | 42%
Cc1cn(-c2ccccc2OCC(F)(F)F)c(=O)c2c(C(=O)Nc3ccc(OCC(F)(F)F)nc3)cnn12 [Example 337, 7-methyl-4-oxo-5-[2-(2,2,2-trifluoroethoxy)phenyl]-N-[6-(2,2,2-trifluoroethoxy)pyridin-3-yl]-4,5-dihydropyrazolo[1,5-a]pyrazine-3-carboxamide] | 37%
Cc1cn(-c2ccccc2OCC(F)(F)F)c(=O)c2c(C(=O)Nc3ccc(OC(F)F)nc3)cnn12 [Example 338, N-[6-(difluoromethoxy)pyridin-3-yl]-7-methyl-4-oxo-5-[2-(2,2,2-trifluoroethoxy)phenyl]-4,5-dihydropyrazolo[1,5-a]pyrazine-3-carboxamide] | 40%
CCCCO[C@H]1CC[C@H](NC(=O)c2cnn3c(C)cn(-c4ccccc4OCC(F)(F)F)c(=O)c23)CC1 [Example 339, N-[trans-4-butoxycyclohexyl]-7-methyl-4-oxo-5-[2-(2,2,2-trifluoroethoxy)phenyl]-4,5-dihydropyrazolo[1,5-a]pyrazine-3-carboxamide] | 30%
Cc1cn(-c2ccccc2OCC(F)(F)F)c(=O)c2c(C(=O)Nc3ccc(C(C)(C)O)cc3)cnn12 [Example 340, N-[4-(2-hydroxypropan-2-yl)phenyl]-7-methyl-4-oxo-5-[2-(2,2,2-trifluoroethoxy)phenyl]-4,5-dihydropyrazolo[1,5-a]pyrazine-3-carboxamide] | 33%
Cc1cn(-c2ccccc2OCC(F)(F)F)c(=O)c2c(C(=O)Nc3ccc(C4CC4)nc3)cnn12 [Example 341, N-(6-cyclopropylpyridin-3-yl)-7-methyl-4-oxo-5-[2-(2,2,2-trifluoroethoxy)phenyl]-4,5-dihydropyrazolo[1,5-a]pyrazine-3-carboxamide] | 32%
Cc1cn(-c2ccccc2OCC(F)(F)F)c(=O)c2c(C(=O)Nc3ccc(C#N)nc3)cnn12 [Example 342, N-(6-cyanopyridin-3-yl)-7-methyl-4-oxo-5-[2-(2,2,2-trifluoroethoxy)phenyl]-4,5-dihydropyrazolo[1,5-a]pyrazine-3-carboxamide] | 28%
Cc1cn(-c2ccccc2OCC(F)(F)F)c(=O)c2c(C(=O)Nc3ccc(C#N)cn3)cnn12 [Example 343, N-(5-cyanopyridin-2-yl)-7-methyl-4-oxo-5-[2-(2,2,2-trifluoroethoxy)phenyl]-4,5-dihydropyrazolo[1,5-a]pyrazine-3-carboxamide] | 23%
Cc1cn(C)c(=O)n2c(C(=O)NC(C)(C)c3ccc(Cl)cc3)cnc12 [Example 347, N-[2-(4-chlorophenyl)propan-2-yl]-6,8-dimethyl-5-oxo-5,6-dihydroimidazo[1,2-c]pyrimidine-3-carboxamide] | 44%
COc1ccccc1-n1cc(C)c2ncc(C(=O)Nc3ccc(N4CCOCC4)cc3)n2c1=O [Example 350, 6-(2-methoxyphenyl)-8-methyl-N-[4-(morpholin-4-yl)phenyl]-5-oxo-5,6-dihydroimidazo[1,2-c]pyrimidine-3-carboxamide] | 54%
